Measured values reported in ChEMBL document CHEMBL3046729, “Design, synthesis, and cytotoxic activities of new 2,4,5-triarylimidazoles” (Med Chem Res, 2013).

Tests used:
[1] = system: MCF7 (Homo sapiens); assay: Cytotoxicity against Homo sapiens (human) MCF7 cells assessed as inhibition of cell proliferation after 72 hr by MTT assay; details: MCF7, 72 h
[2] = system: T47D; assay: Cytotoxicity against Homo sapiens (human) T47D cells assessed as inhibition of cell proliferation after 72 hr by MTT assay; format: functional, cell-based
[3] = system: MDA-MB-231; assay: Cytotoxicity against Homo sapiens (human) MDA-MB-231 cells assessed as inhibition of cell proliferation after 72 hr by MTT assay; format: functional, cell-based; details: MDA-MB-231, 72 h
[4] = system: MCF7; assay: Cytotoxicity against Homo sapiens (human) MCF7 cells assessed as inhibition of cell proliferation after 72 hr by MTT assay; format: functional, cell-based; details: MCF7, 72 h

SMILES | IC50 [1] [µM] | IC50 [2] [µM] | IC50 [3] [µM] | IC50 [4] [µM]
CN(C)CCOc1ccc(-c2nc(-c3ccc(F)cc3)[nH]c2-c2ccccc2)cc1 | 82 | 61 |  | 
CN(C)CCOc1ccc(-c2nc(-c3ccccc3)[nH]c2-c2ccccc2)cc1 |  | 50 | 53 | 
c1ccc(-c2nc(-c3ccc(OCCN4CCCCC4)cc3)c(-c3ccccc3)[nH]2)cc1 |  | < 0.1 | < 0.1 | < 0.1
Oc1ccc(-c2nc(-c3ccc(OCCN4CCCCC4)cc3)c(-c3ccccc3)[nH]2)cc1 |  | < 0.1 | < 0.1 | < 0.1
Fc1ccc(-c2nc(-c3ccc(OCCN4CCCCC4)cc3)c(-c3ccccc3)[nH]2)cc1 |  | 61 | 78 | > 100
COc1ccc(-c2nc(-c3ccc(OCCN(C)C)cc3)c(-c3ccccc3)[nH]2)cc1 |  | 28 | 42 | 
CC/C(=C(\c1ccccc1)c1ccc(OCCN(C)C)cc1)c1ccccc1 [TAMOXIFEN] |  | 12.1 | 25.1 | 55.5
COc1ccc(-c2nc(-c3ccc(OCCN4CCCCC4)cc3)c(-c3ccccc3)[nH]2)cc1 |  | 54 | 65 | 71
CN(C)CCOc1ccc(-c2nc(-c3ccc(O)cc3)[nH]c2-c2ccccc2)cc1 |  | 63 | 70 | 82
